Some test systems named below: UO-31; SF-268; UACC-62; 786-0; HOP-92; SK-MEL-5; HL-60; K562; BT-549; T47D; NCI-H226; SNB-75; SK-MEL-2; COLO 205; SW-620; CCRF-CEM; LOX IMVI; SF-295; IGROV-1; A498.
What all share (experiment): inhibition of tumour cell growth, NCI panel, 48 h

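Cells were grown in 96-well plates and exposed to each compound for 48 hours at five concentrations; endpoints were interpolated linearly between bracketing concentrations, or set to the highest concentration if not reached. GI50 is the concentration that inhibits growth by half.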 The source made the active and inactive calls. Cut-off read from the data, not from the text of the source: active = GI50 up to about 1.1 µM and inactive = higher.

This is an account of results in ChEMBL document CHEMBL1201862, “PubChem BioAssay data set” (2004).

In the case of `Nc1c2ccccc2nc2ccc3c(=O)cc(-c4ccccc4)oc3c12`, the GI50 in the assay with UO-31 is 1.5 µM (inactive); in the assay with SF-268, 1.22 µM (inactive); with UACC-62, 1.6 µM (inactive); with 786-0, 0.436 µM (active); in the assay with HOP-92, 1.24 µM (inactive); with SK-MEL-5, 1.52 µM (inactive). Also, the GI50 with HL-60 was 0.977 µM (active); with K562, 0.272 µM (active); with BT-549, 2.8 µM (inactive); in the assay on T47D, 1.17 µM (inactive); with NCI-H226, 1.31 µM (inactive); in the assay with SNB-75 it was 1.76 µM (inactive). Also, the GI50 is 1.96 µM (inactive) in the assay on SK-MEL-2; 0.234 µM (active) in the assay on COLO 205; 0.327 µM (active) in the assay with SW-620; 0.445 µM (active) in the assay with CCRF-CEM; 0.406 µM (active) in the assay with LOX IMVI; 0.719 µM (active) in the assay with SF-295. In the assay on IGROV-1, the GI50 was 1.12 µM (inactive).
On to `COC(=O)CSSCc1ccc([N+](=O)[O-])cc1`, for which the GI50 in the assay on UO-31 was 10.6 µM (inactive); with SF-268, 21.8 µM (inactive); with UACC-62, 15.8 µM (inactive); in the assay on 786-0, 19 µM (inactive); in the assay on HOP-92, 27.1 µM (inactive); with SK-MEL-5 it was 17.7 µM (inactive). The GI50 with HL-60 was 21.1 µM (inactive); in the assay on K562, 29.6 µM (inactive); in the assay with BT-549 it was 19.1 µM (inactive); in the assay on T47D it was 24.1 µM (inactive); with SNB-75 it was 20 µM (inactive); in the assay with SK-MEL-2, 18.1 µM (inactive). Besides, the GI50 in the assay on COLO 205 was 18.7 µM (inactive); in the assay with SW-620 it was 12.2 µM (inactive); in the assay with CCRF-CEM it was 5.6 µM (inactive); in the assay on LOX IMVI, 12.8 µM (inactive); in the assay on SF-295 it was 19 µM (inactive); in the assay with IGROV-1, 3.08 µM (inactive). Besides, the GI50 in the assay on A498 was 21.6 µM (inactive).
For the compound `COC1CC(OC2C(C)OC(OC3C(C)OC(OC4C(C)OC(O[C@H]5CC[C@@]6(C)C(=CC[C@]7(O)[C@@H]6C[C@@H](O)[C@@]6(C)[C@]7(O)CC[C@@]6(O)C(C)=O)C5)CC4OC)CC3OC)CC2OC)OC(C)C1O` (some centres undefined), the GI50 in the assay with UO-31 is 12.4 µM (inactive); in the assay on SF-268 it was > 12.5 µM (inactive); with UACC-62 it was > 12.5 µM (inactive); in the assay with 786-0, > 12.5 µM (inactive); in the assay on HOP-92, > 12.5 µM (inactive); with SK-MEL-5, > 12.5 µM (inactive). Further, the GI50 in the assay on HL-60, with K562, with BT-549, in the assay with T47D, with NCI-H226 and with SNB-75 was > 12.5 µM (inactive) in each case. Further, the GI50 in the assay with SK-MEL-2, in the assay with COLO 205, in the assay on SW-620, with CCRF-CEM, in the assay with LOX IMVI and with SF-295 was > 12.5 µM (inactive) each time. In the assay with IGROV-1, the GI50 was > 12.5 µM (inactive).
As for `CSc1ccc(/C=C2\CNC/C(=C\c3ccc(SC)cc3)C2=O)cc1`, the GI50 with UO-31 is > 252 µM (inactive); in the assay with SF-268, 13.4 µM (inactive); in the assay on UACC-62 it was > 87.5 µM (inactive); with 786-0, 29.3 µM (inactive); in the assay on HOP-92, 65.5 µM (inactive); in the assay on SK-MEL-5, > 371 µM (inactive). The GI50 in the assay on HL-60 is > 74.3 µM (inactive); with K562 it was > 371 µM (inactive); with BT-549, > 371 µM (inactive); with T47D, > 371 µM (inactive); with NCI-H226, 40.6 µM (inactive); with SNB-75, 15 µM (inactive). Besides, the GI50 with SK-MEL-2 was > 194 µM (inactive); with COLO 205, > 371 µM (inactive); in the assay with SW-620, > 371 µM (inactive); in the assay with SF-295 it was 29.4 µM (inactive); with IGROV-1, > 81.7 µM (inactive).
Take `Cc1nc2c(sc(=S)n2-c2ccccc2)c2nc3ncccc3n12`: the GI50 is > 100 µM (inactive) in the assay on UO-31; 66.7 µM (inactive) with SF-268; > 100 µM (inactive) in the assay with UACC-62; 35.2 µM (inactive) with 786-0; > 100 µM (inactive) in the assay on HOP-92; > 100 µM (inactive) with SK-MEL-5. Besides, the GI50 in the assay on HL-60 is > 100 µM (inactive); in the assay with K562, > 100 µM (inactive); in the assay on BT-549, > 100 µM (inactive); in the assay on T47D, > 100 µM (inactive); in the assay on SNB-75 it was 23.6 µM (inactive); in the assay on SK-MEL-2, 65.8 µM (inactive). Further, the GI50 with COLO 205 was > 100 µM (inactive); in the assay with SW-620 it was > 100 µM (inactive); in the assay with CCRF-CEM, > 100 µM (inactive); in the assay on LOX IMVI it was > 100 µM (inactive); with SF-295, 77.4 µM (inactive); in the assay on IGROV-1, > 100 µM (inactive). Further, the GI50 with A498 was > 100 µM (inactive).
For `COc1ccc2c(-c3ccc(OCCN(C)C)cc3)c(Oc3ccccc3)c(=O)oc2c1`, the GI50 in the assay with UO-31 is 4 µM (inactive); with SF-268 it was 6.18 µM (inactive); in the assay with UACC-62 it was 2.78 µM (inactive); in the assay on 786-0 it was 2.87 µM (inactive); with HOP-92, 9.53 µM (inactive); in the assay with SK-MEL-5 it was 2.37 µM (inactive). Further, the GI50 is 3.07 µM (inactive) with K562; 11 µM (inactive) in the assay on BT-549; 7.85 µM (inactive) in the assay on T47D; 16.1 µM (inactive) with NCI-H226; 6.95 µM (inactive) in the assay with SNB-75; 5.33 µM (inactive) in the assay with SK-MEL-2. The GI50 is 3.01 µM (inactive) with COLO 205; 4.2 µM (inactive) with SW-620; 3.54 µM (inactive) in the assay on CCRF-CEM; 3.74 µM (inactive) in the assay on LOX IMVI; 3.17 µM (inactive) in the assay with SF-295; 5.42 µM (inactive) in the assay with IGROV-1. Moreover, the GI50 in the assay on A498 was 13.4 µM (inactive).
Regarding `COc1cc(N(CCC#N)CCC#N)ccc1/C=N\NC(=O)c1ccc(C)cc1`, the GI50 with SF-268, in the assay on UACC-62, with 786-0, in the assay with HOP-92, in the assay on SK-MEL-5 and in the assay with HL-60 was > 100 µM (inactive) each time. For the same compound, the GI50 was > 100 µM (inactive) with K562; > 100 µM (inactive) in the assay on BT-549; > 100 µM (inactive) with T47D; > 100 µM (inactive) with NCI-H226; > 100 µM (inactive) in the assay with SNB-75; 17.3 µM (inactive) in the assay on SK-MEL-2. Besides, the GI50 with COLO 205, in the assay with SW-620, in the assay on CCRF-CEM, in the assay with LOX IMVI, in the assay on SF-295 and in the assay on IGROV-1 was > 100 µM (inactive) in each case.
With `COC(=O)NC1C(C)OC(OC2C/C=C(/C)C3C=CC4C(OC5CC(OC6CC(OC7CC(O)C(O)C(C)O7)C(OC7CC(O)C(OC)C(C)O7)C(C)O6)C(O)C(C)O5)C(C)CC(C)C4C3(C)C(=O)C3=C(O)C4(CC(C)C(CO)=CC4/C=C\2C)OC3=O)CC1(C)[N+](=O)[O-]` (centres undefined), the GI50 in the assay with UO-31 was 22.9 µM (inactive); with SF-268 it was 11.6 µM (inactive); in the assay on UACC-62 it was 4.14 µM (inactive); with 786-0, 2.44 µM (inactive); with HOP-92, 6.24 µM (inactive); in the assay on SK-MEL-5, 5.22 µM (inactive). Besides, the GI50 in the assay on HL-60 is 2.54 µM (inactive); in the assay with BT-549, 20.8 µM (inactive); with T47D it was 7.78 µM (inactive); in the assay on SNB-75, 2.47 µM (inactive); with SK-MEL-2 it was 11.6 µM (inactive); in the assay on COLO 205 it was 11.3 µM (inactive). Further, the GI50 in the assay on SW-620 is 5.24 µM (inactive); in the assay on CCRF-CEM it was 3.29 µM (inactive); in the assay with LOX IMVI, 3.23 µM (inactive); in the assay on SF-295 it was 4.6 µM (inactive); in the assay with IGROV-1, 10.4 µM (inactive); in the assay on A498, 25.6 µM (inactive).
As for `Clc1ccc(COC(Cn2ccnc2)c2ccc(Cl)cc2Cl)cc1` (centres undefined) [ECONAZOLE NITRATE], the GI50 in the assay on UO-31 was 3.41 µM (inactive); in the assay with SF-268, 14.7 µM (inactive); in the assay with UACC-62, 9.86 µM (inactive); with 786-0, 12.6 µM (inactive); with HOP-92, 11.8 µM (inactive); in the assay on HL-60 it was 4.19 µM (inactive). For the same compound, the GI50 in the assay with K562 was 4.62 µM (inactive); with BT-549, 15.2 µM (inactive); in the assay with T47D, 5.42 µM (inactive); with SNB-75, 15.6 µM (inactive); in the assay on SK-MEL-2, 15 µM (inactive); with COLO 205, 8.28 µM (inactive). Moreover, the GI50 with SW-620 was 11.3 µM (inactive); in the assay with CCRF-CEM, 5.87 µM (inactive); in the assay on LOX IMVI, 9.57 µM (inactive); with SF-295 it was 9.57 µM (inactive); with IGROV-1 it was 12.2 µM (inactive); with A498, 11.6 µM (inactive).
For the compound `COc1ccc(C(=O)O[C@H]2CC[C@@]3(C)[C@@H]4CC[C@H]5[C@]6(O)C[C@H](O)[C@@]7(O)[C@@H](CN8C[C@@H](C)CC[C@H]8[C@@]7(C)O)[C@]6(O)C[C@@]53OC24O)cc1OC` [VERATRIDINE], the GI50 in the assay with UO-31, in the assay on SF-268, in the assay with UACC-62, in the assay with 786-0, in the assay with HOP-92 and in the assay with SK-MEL-5 was > 100 µM (inactive) throughout. The GI50 with K562 was > 100 µM (inactive); with BT-549, > 100 µM (inactive); with T47D, > 100 µM (inactive); with NCI-H226 it was 44.3 µM (inactive); with SNB-75, 23.4 µM (inactive); in the assay with SK-MEL-2 it was > 100 µM (inactive). The GI50 in the assay on COLO 205, in the assay with SW-620, in the assay with LOX IMVI, with SF-295, with IGROV-1 and in the assay on A498 was > 100 µM (inactive) each time.
